# Measurements published in publication PMC3116712 (ACS medicinal chemistry letters, 2011).
# Molecular target: WT A/M2 proton channel (Influenza A virus, UniProt P0DOF5)
# Assay type: cell-based
# Settings: TEVC
# Sequence of WT A/M2 proton channel (P0DOF5 whole entry, looked up): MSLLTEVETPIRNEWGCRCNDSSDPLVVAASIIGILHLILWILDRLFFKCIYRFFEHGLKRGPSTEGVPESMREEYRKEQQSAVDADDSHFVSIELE
row,Compound,activity against WT A/M2 channel (in words)
1,"O=S(=O)(O)C12CC3CC(CC(C3)C1)C2 [Compound 3, 1-adamantyl sulfonic acid]",inactive
2,O=C1CC2(CCCCC2)CC(=O)N1 [Compound 16],only weakly active
3,NN1C(=O)CC2(CCCCC2)CC1=O [Compound 17],only weakly active
4,OC1C2C3CC4C1C1C2CC3C41 (stereo not drawn) [Compound 19],only moderate inhibition
5,Cl.NC12CC3CC(C1)CC(CO)(C3)O2 [Compound 25],not active
6,CC12CC3(O)CC1(C)CC3(O)C2 [Compound 26],only moderately active
